Data: patent US12404285B2, “KRAS G12D proteolysis targeting chimeras” (PAQ Therapeutics Inc., priority 2022, dated 2025)

Biological target: T1, KRAS (G12D)-HiBit in AsPc-1-KRAS (G12D)-HiBit-KI cell (Homo sapiens, UniProt P01116, G12D)
T1 construct: host or cells: AsPc-1-KRAS (G12D)-HiBit-KI cells (knock-in line)
Assay: G12D HiBit assay
Assay type: cell-based
Conditions: 24 hours compound treatment, absolute DC50, read-out: Average PHA DC50
Method: Day 1. Prepared the culture medium for AsPc-1-KRAS (G12D)-HiBit-KI cell (Pharmaron) using RPMI 1640 medium (Gibco, 11875093) with 10% FBS (Gibco, 10099141C) and 1% Penicillin-Streptomycin Liquid (Solarbio, P1400). Cultivated cells in T-75 flasks in a cell culture incubator (Thermo, Model: 371) at 37° C., 5% CO2. Allowed cells to reach approximately 80% confluence before splitting. Rinsed cultivated cells in T-75 flasks with 5 mL PBS (Solarbio, P1020-500). Aspirated off PBS, added 1.5 mL trypsin (Invitrogen, #25300), and incubated at 37° C. for approximately 5 minutes or until the cells detached. Inactivated trypsin by adding excessive serum containing medium. Harvested the cells from flask into cell culture medium and counted the cell number. Seeded AsPc-1-KRAS (G12D)-HiBit-KI cell into 384-well plate (Corning, 3570) (cell density: 5×10^3 cells/well in 50 μL medium) in RPMI 1640 medium and incubated overnight at 37° C. and 5% CO2.
Day 2. Test compounds were dissolved at 0.3 mM in DMSO (Solarbio, D8371) as stock solution. Transferred 45 μL of stock solution to a 384-well plate (Labcyte, 001-14555). Performed 3-fold, 10-points dilution via transferring 15 μL compound into 30 μL DMSO by using TECAN liquid handler (TECAN, Freedom EVO200). The compound plates were spin at room temperature at 1,000 RPM for 1 minute (Eppendorf, 5810R). Transferred 50 nL of diluted compounds from compound source plate into the cell plate by Echo (Labcyte, 550) to achieve final concentrations of 300 nM, 100 nM, 33.3 nM, 11.1 nM, 3.7 nM, 1.23 nM, 0.41 nM, 0.14 nM, 0.046 nM and 0.015 nM, then mixed the cell plate on a plate shaker (Yoning, WZ-4) for 15 seconds at 900 rpm. After compound treatment for 24 hours, removed the plate from incubators and equilibrated at room temperature for 15 minutes. Prepared the HiBit reagent (Promega, N3040) by mixing 10 mL of Nano-Glo®-HiBiT Lytic Buffer with 200 μL of Nano-Glo®-HiBiT Lytic Substrate and 100 μL of LgBiT Protein. Added 20 μL of HiBit reagent into each well of the cell plate and spun the plates at room temperature at 1,000 RPM for 1 minute. Then shook the plates at 600 RPM at room temperature for 20 minutes using a plate shaker (Yoning, WZ-4), and read the luminescence by EnVision (PerkinElmer, 2105-0020).
The inhibition activity was calculated using the following formula: HiBit-G12D level (%)=100%×[Luminescence(Sample)/Mean of Luminescence (HC)] where HC (high control) is obtained from cells treated with 0.1% DMSO only.
Absolute DC50 was calculated by fitting the curve using GraphPad Prism v8.0.2 (analyis 263): Y=Bottom+(100−Bottom)/(1+10^(Log AbsoluteIC50−X)*HillSlope+log((100−Bottom)/(50−Bottom)−1)))
The data are reported in Table 3, wherein “+++”=DC50 less than 100 nM, “++”=DC50 greater than or equal to 100 nM and less than 300 nM; “+”=DC50 greater than or equal to 300 nM.

T1 sequence (P01116 1-188 isoform P01116-2 G12D): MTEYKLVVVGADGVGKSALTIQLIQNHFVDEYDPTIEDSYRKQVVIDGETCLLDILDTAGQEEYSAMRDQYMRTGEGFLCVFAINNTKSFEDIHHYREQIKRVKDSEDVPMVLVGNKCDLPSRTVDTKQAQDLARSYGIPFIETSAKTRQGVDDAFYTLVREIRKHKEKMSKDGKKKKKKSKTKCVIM

Structure (SMILES) | DC50 [nM]
C#Cc1c(F)ccc2cccc(-c3ncc4c(N5CC6CCC(C5)N6)nc(OC[C@@]56CCCN5[C@H](COC(=O)NCCCC(=O)N5CCN(c7ccc(N8CCC(=O)NC8=O)cc7)CC5)CC6)nc4c3F)c12 [Compound 146, [(3S,8S)-8-[[4-(3,8-diazabicyclo[3.2.1]octan-3-yl)-7-(8-ethynyl-7-fluoro-1-naphthyl)-8-fluoro-pyrido[4,3-d]pyrimidin-2-yl]oxymethyl]-1,2,3,5,6,7-hexahydropyrrolizin-3-yl]methylN-[4-[4-[4-(2,4-dioxohexahydropyrimidin-1-yl)phenyl]piperazin-1-yl]-4-oxo-butyl]carbamate] | ≥ 300
C#Cc1c(F)ccc2cccc(-c3ncc4c(N5CC6CCC(C5)N6)nc(OC[C@@]56CCCN5[C@H](COC(=O)N5CCC(Cn7cc(-c8cccc9c8n(C)c(=O)n9C8CCC(=O)NC8=O)nn7)CC5)CC6)nc4c3F)c12 (stereo partly drawn) [Compound 96, [(3S,8S)-8-[[4-(3,8-Diazabicyclo[3.2.1]octan-3-yl)-7-(8-ethynyl-7-fluoro-1-naphthyl)-8-fluoro-pyrido[4,3-d]pyrimidin-2-yl]oxymethyl]-1,2,3,5,6,7-hexahydropyrrolizin-3-yl]methyl 4-[[4-[1-(2,6-dioxo-3-piperidyl)-3-methyl-2-oxo-benzimidazol-4-yl]triazol-1-yl]methyl]piperidine-1-carboxylate] | ≥ 300
C#Cc1c(F)ccc2cccc(-c3ncc4c(N5CC6CCC(C5)N6)nc(OC[C@@]56CCCN5[C@H](COC(=O)N5CCC(CNC7CCN(Cc8cccc9c8n(C)c(=O)n9C8CCC(=O)NC8=O)CC7)CC5)CC6)nc4c3F)c12 (stereo partly drawn) [Compound 145, [(3S,8S)-8-[[4-(3,8-Diazabicyclo[3.2.1]octan-3-yl)-7-(8-ethynyl-7-fluoro-1-naphthyl)-8-fluoro-pyrido[4,3-d]pyrimidin-2-yl]oxymethyl]-1,2,3,5,6,7-hexahydropyrrolizin-3-yl]methyl 4-[[[1-[[1-(2,6-dioxo-3-piperidyl)-3-methyl-2-oxo-benzimidazol-4-yl]methyl]-4-piperidyl]amino]methyl]piperidine-1-carboxylate] | < 100
C#Cc1c(F)ccc2cccc(-c3ncc4c(N5CC6CCC(C5)N6)nc(OC[C@@]56CCCN5[C@H](COC(=O)NCCCC(=O)N5CCN(c7cccc8c7n(C)c(=O)n8C7CCC(=O)NC7=O)CC5)CC6)nc4c3F)c12 (stereo partly drawn) [Compound 110, ((3S,7aS)-7a-(((4-((1R,5S)-3,8-Diazabicyclo[3.2.1]octan-3-yl)-7-(8-ethynyl-7-fluoronaphthalen-1-yl)-8-fluoropyrido[4,3-d]pyrimidin-2-yl)oxy)methyl)hexahydro-1H-pyrrolizin-3-yl)methyl(4-(4-(1-(2,6-dioxopiperidin-3-yl)-3-methyl-2-oxo-2,3-dihydro-1H-benzo[d]imidazol-4-yl)piperazin-1-yl)-4-oxobutyl)carbamate] | ≥ 300
C#Cc1c(F)ccc2cccc(-c3ncc4c(N5CC6CCC(C5)N6)nc(OC[C@@]56CCCN5[C@H](COC(=O)N5CCC(OCCC#Cc7ccc8c(c7)n(C)c(=O)n8C7CCC(=O)NC7=O)CC5)CC6)nc4c3F)c12 (stereo partly shown) [Compound 50] | < 100
C#Cc1c(F)ccc2cccc(-c3ncc4c(N5CC6CCC(C5)N6)nc(OC[C@@]56CCCN5[C@H](COC(=O)N5CCC(OCCCCCCCc7cccc8c7n(C)c(=O)n8C7CCC(=O)NC7=O)CC5)CC6)nc4c3F)c12 (stereo partly shown) [Compound 59] | < 100
C#Cc1c(F)ccc2cccc(-c3ncc4c(N5CC6CCC(C5)N6)nc(OC[C@@]56CCCN5[C@H](COC(=O)N5CCC7(CC5)CC(CCc5ccc8c(c5)n(C)c(=O)n8C5CCC(=O)NC5=O)C7)CC6)nc4c3F)c12 (stereo partly shown) [Compound 67] | < 100
C#Cc1c(F)ccc2cccc(-c3ncc4c(N5CC6CCC(C5)N6)nc(OC[C@@]56CCCN5[C@H](COC(=O)N5CCC(OCCCC#Cc7ccc8c(c7)n(C)c(=O)n8C7CCC(=O)NC7=O)CC5)CC6)nc4c3F)c12 (stereo partly drawn) [Compound 114, [(3S,8S)-8-[[4-(3,8-Diazabicyclo[3.2.1]octan-3-yl)-7-(8-ethynyl-7-fluoro-1-naphthyl)-8-fluoro-pyrido[4,3-d]pyrimidin-2-yl]oxymethyl]-1,2,3,5,6,7-hexahydropyrrolizin-3-yl]methyl 4-[5-[1-(2,6-dioxo-3-piperidyl)-3-methyl-2-oxo-benzimidazol-5-yl]pent-4-ynoxy]piperidine-1-carboxylate] | < 100
C#Cc1c(F)ccc2cccc(-c3ncc4c(N5CC6CCC(C5)N6)nc(OC[C@@]56CCCN5[C@H](COC(=O)N5CC(OC7CCN(Cc8ccc9c(c8)n(C)c(=O)n9C8CCC(=O)NC8=O)CC7)C5)CC6)nc4c3F)c12 (stereo partly drawn) [Compound 89, [(3S,8S)-8-[[4-(3,8-Diazabicyclo[3.2.1]octan-3-yl)-7-(8-ethynyl-7-fluoro-1-naphthyl)-8-fluoro-pyrido[4,3-d]pyrimidin-2-yl]oxymethyl]-1,2,3,5,6,7-hexahydropyrrolizin-3-yl]methyl 3-[[1-[[1-(2,6-dioxo-3-piperidyl)-3-methyl-2-oxo-benzimidazol-5-yl]methyl]-4-piperidyl]oxy]azetidine-1-carboxylate] | < 100
C#Cc1c(F)ccc2cccc(-c3ncc4c(N5CC6CCC(C5)N6)nc(OC[C@@]56CCCN5[C@H](COC(=O)NC[C@@H]5CN(CC#Cc7cccc8c7n(C)c(=O)n8C7CCC(=O)NC7=O)CCO5)CC6)nc4c3F)c12 (stereo partly drawn) [Compound 125, [(3S,8S)-8-[[4-(3,8-Diazabicyclo[3.2.1]octan-3-yl)-7-(8-ethynyl-7-fluoro-1-naphthyl)-8-fluoro-pyrido[4,3-d]pyrimidin-2-yl]oxymethyl]-1,2,3,5,6,7-hexahydropyrrolizin-3-yl]methylN-[[(2R)-4-[3-[1-(2,6-dioxo-3-piperidyl)-3-methyl-2-oxo-benzimidazol-4-yl]prop-2-ynyl]morpholin-2-yl]methyl]carbamate] | ≥ 300
C#Cc1c(F)ccc2cccc(-c3ncc4c(N5CC6CCC(C5)N6)nc(OC[C@@]56CCCN5[C@H](COC(=O)N5CCC(CN7CCN(c8cccc9c8n(C)c(=O)n9C8CCC(=O)NC8=O)CC7)CC5)CC6)nc4c3F)c12 (stereo partly drawn) [Compound 112, [(3S,8S)-8-[[4-(3,8-Diazabicyclo[3.2.1]octan-3-yl)-7-(8-ethynyl-7-fluoro-1-naphthyl)-8-fluoro-pyrido[4,3-d]pyrimidin-2-yl]oxymethyl]-1,2,3,5,6,7-hexahydropyrrolizin-3-yl]methyl 4-[[4-[1-(2,6-dioxo-3-piperidyl)-3-methyl-2-oxo-benzimidazol-4-yl]piperazin-1-yl]methyl]piperidine-1-carboxylate] | < 100
C#Cc1c(F)ccc2cccc(-c3ncc4c(N5CC6CCC(C5)N6)nc(OC[C@@]56CCCN5[C@H](COC(=O)N5CCO[C@@H](CN7CCN(c8cccc9c8n(C)c(=O)n9C8CCC(=O)NC8=O)CC7)C5)CC6)nc4c3F)c12 (stereo partly drawn) [Compound 111, [(3S,8S)-8-[[4-(3,8-Diazabicyclo[3.2.1]octan-3-yl)-7-(8-ethynyl-7-fluoro-1-naphthyl)-8-fluoro-pyrido[4,3-d]pyrimidin-2-yl]oxymethyl]-1,2,3,5,6,7-hexahydropyrrolizin-3-yl]methyl (2S)-2-[[4-[1-(2,6-dioxo-3-piperidyl)-3-methyl-2-oxo-benzimidazol-4-yl]piperazin-1-yl]methyl]morpholine-4-carboxylate-2,6-dione] | < 100
C#Cc1c(F)ccc2cccc(-c3ncc4c(N5CC6CCC(C5)N6)nc(OC[C@@]56CCCN5[C@H](COC(=O)N5CCC(OC7CN(Cc8ccc9c(c8)n(C)c(=O)n9C8CCC(=O)NC8=O)C7)CC5)CC6)nc4c3F)c12 (stereo partly shown) [Compound 74] | < 100
